Data taken from US20190134005A1 (BioMarin Pharmaceutical Inc., priority 2016, published 2019).

Target: T1, human CGT (Homo sapiens, UniProt Q16880)
T1 sequence (Q16880 21-541): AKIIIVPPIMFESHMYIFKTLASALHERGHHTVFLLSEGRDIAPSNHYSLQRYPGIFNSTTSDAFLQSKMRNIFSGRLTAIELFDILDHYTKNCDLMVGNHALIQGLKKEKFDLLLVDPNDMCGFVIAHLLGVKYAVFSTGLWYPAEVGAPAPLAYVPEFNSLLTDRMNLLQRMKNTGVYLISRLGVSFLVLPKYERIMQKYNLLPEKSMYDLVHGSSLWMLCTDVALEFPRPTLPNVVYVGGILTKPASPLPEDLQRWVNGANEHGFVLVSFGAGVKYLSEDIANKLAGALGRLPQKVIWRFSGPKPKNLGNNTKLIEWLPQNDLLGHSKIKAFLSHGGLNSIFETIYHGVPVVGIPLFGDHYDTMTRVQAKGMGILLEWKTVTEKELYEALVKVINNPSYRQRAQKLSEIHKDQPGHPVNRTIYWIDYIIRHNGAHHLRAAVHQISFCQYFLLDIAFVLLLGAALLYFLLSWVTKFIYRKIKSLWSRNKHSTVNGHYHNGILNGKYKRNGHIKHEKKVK
Assay: CGT Enzyme Assay (Biological Example 2, RapidFire/MS/MS method with 0.01% Tween 80 added)
Format: biochemical
Details: enzymatic assay, CHO/CGT lysate
Method: Full-length human CGT cDNA was cloned into the BamH1/Xho1 site of pcDNA3.1 (+) mammalian expression vector (V90-20, Invitrogen, Carlsbad, Calif.) and the plasmid was transfected into Chinese hamster ovary (CHO) cells. Lysate was prepared using M-PER (Mammalian Protein Extraction Reagent, ThermoFisher Scientific, Grand Island, N.Y.) in the presence of a protease inhibitor cocktail (P8340, Sigma, Saint Louis, Mo.). Each 100 mm dish (100% confluent, approximately 1×10^7 cells) was lysed with 250 μL of M-PER containing protease inhibitors. Protein concentration was determined using a Pierce BCA protein assay kit (ThermoFisher Scientific). […] The final concentration of DMSO was 0.5% in both compound-treated and mock-treated samples. Each individual reaction was diluted with 80 μL of methanol:acetronitrile (1:3) containing 5 μM N-docdecanoyl-NBD-galactosylceramide (internal standard) to stop the reaction. 200 μL H2O:acetonitile (1:1) was added to precipitate the protein. After sufficient mixing, the plates were centrifuged at 2469 g for 38 minutes, 200 μl of supernatant was transferred to a LC-MS 96-deep well plate and a second spin was performed at 2469 g for 10 minutes. The final supernatant was injected in triplicate for RapidFire/MS/MS analysis.
The quantitative analysis of C6-NBD-dihydro-ceramide and C6-NBD-dihydro-galactosylceramide was performed on a Rapid Fire 360 high-throughput mass spectrometry system (Agilent Technologies, Palo Alto, Calif.) coupled with a API4000^+ triple quadrupole mass spectrometer (Applied Biosystems, Concord, Ontario, Canada). RapidFire software packages, including RapidFire Control panel, RapidFire UI and RapidFire Integrator (Agilent Technologies), were used to control the RapidFire instrument and to process data. Analyst 1.6.2 software packages (Applied Biosystems) were used to control the MS system and acquire MS data. 10 μL of sample was loaded on a micro-scale C4 solid-phase extraction (SPE) cartridge (Agilent Technologies) and salts were removed using water supplemented with 0.1% formic acid at the flow rate of 1.5 mL/min for 3 sec. C6-NBD-dihydro-ceramide and C6-NBD-dihydro-galactosylceramide were co-eluted into the mass spectrometer using acetonitrile containing 0.1% formic acid at the flow rate of 1.0 mL/min for 3 sec. The total cycle time of one injection was 8 secs. The MS/MS detection was performed in ESI negative mode.
The C6-NBD-dihydro-galactosylceramide reading was normalized first by dividing the peak area of C6-NBD-dihydro-galactosylceramide by the peak area of the internal standard, N-docdecanoyl-NBD-galactosylceramide.

For CC1(C)[C@@H](c2cccc(C#N)c2)N(c2ccc(Cl)cc2)C(=O)N1c1ccc(Cl)cc1 [Example 10-1, (R)-3-(1,3-bis(4-chlorophenyl)-5,5-dimethyl-2-oxoimidazolidin-4-yl)benzonitrile], the IC50 was 10 to 30 µM.

With Cc1ccc(N2C(=O)N(c3ccc(C#N)cc3)[C@@H](c3cccc(C#N)c3)C23COC3)cc1 [Example 55-2, (S)-3-(7-(4-cyanophenyl)-6-oxo-5-(p-tolyl)-2-oxa-5,7-diazaspiro[3.4]octan-8-yl)benzonitrile] the IC50 was 1 to 10 µM.

With N#Cc1ccc(N2C(=O)N(c3ccc(Cl)cc3)C3(COC3)[C@@H]2c2cccc(OC(F)(F)F)c2)cc1 [Example 47-2, (S)-4-(5-(4-chlorophenyl)-6-oxo-8-(3-(trifluoromethoxy)phenyl)-2-oxa-5,7-diazaspiro[3.4]octan-7-yl)benzonitrile] the IC50 was less than 1 µM.

N#Cc1cccc([C@H]2N(c3ccc(Cl)cc3)C(=O)N(c3ccc(Cl)cc3)C23COC3)c1 [Example 30-1, (R)-3-(5,7-bis(4-chlorophenyl)-6-oxo-2-oxa-5,7-diazaspiro[3.4]octan-8-yl)benzonitrile] gave an IC50 of 10 to 30 µM.

CC1(C)[C@H](c2cccc(Cl)c2)N(c2ccc(Cl)cc2)C(=O)N1c1ccc(Cl)cc1 [Example 8-2, (S)-5-(3-chlorophenyl)-1,3-bis(4-chlorophenyl)-4,4-dimethylimidazolidin-2-one] was tested, and the IC50 was less than 1 µM.

CC[C@]1(C)[C@H](c2cccc(OC(F)(F)F)c2)N(c2ccc(C#N)cc2)C(=O)N1c1ccc(C#N)cc1 [Example 51-2, 4,4′-((4R,5S)-4-ethyl-4-methyl-2-oxo-5-(3-(trifluoromethoxy)phenyl)imidazolidine-1,3-diyl)dibenzonitrile] was tested, and the IC50 was less than 1 µM.

In the case of CCC[C@@]1(C)[C@@H](c2cccc(C#N)c2)N(c2ccc(Cl)cc2)C(=O)N1c1ccc(Cl)cc1 [Example 33-4, 3-((4R,5S)-1,3-bis(4-chlorophenyl)-5-methyl-2-oxo-5-propylimidazolidin-4-yl)benzonitrile], the IC50 is reported as less than 1 µM.

For O=C1N(c2ccc(Cl)cc2)[C@H]2CCC[C@@]2(c2cccc(OC(F)F)c2)N1c1ccc(Cl)cc1 [Example 23-1, (3aS,6aS)-1,3-bis(4-chlorophenyl)-3a-(3-(difluoromethoxy)phenyl)hexahydrocyclopenta[d]imidazol-2(1H)-one], the IC50 was 10 to 30 µM.

For CCC[C@]1(C)[C@H](c2cccc(OC(F)(F)F)c2)N(c2ccc(C#N)cc2)C(=O)N1c1ccc(C#N)cc1 [Example 52-2, 4,4′-((4R,5S)-4-methyl-2-oxo-4-propyl-5-(3-(trifluoromethoxy)phenyl)imidazolidine-1,3-diyl)dibenzonitrile], the IC50 was less than 1 µM.

CC1(C)C(c2cccc(Cl)c2)N(c2ccc(Cl)cc2)C(=O)N1c1ccc(Cl)cc1 (stereo not shown) [Example 8] showed an IC50 of less than 1 µM.

Cc1ccc(N2C(=O)N(c3ccc(C#N)cc3)[C@H](c3cccc(C#N)c3)C2(C)C)cc1 [Example 48-1, (R)-3-(3-(4-cyanophenyl)-5,5-dimethyl-2-oxo-1-(p-tolyl)imidazolidin-4-yl)benzonitrile] was tested, and the IC50 was 10 to 30 µM.

In the case of C[C@H]1[C@H](c2cccc(C#N)c2)N(c2ccc(Cl)cc2)C(=O)N1c1ccc(Cl)cc1 [Example 5-2, 3-((4S,5S)-1,3-bis(4-chlorophenyl)-5-methyl-2-oxoimidazolidin-4-yl)benzonitrile], the IC50 is reported as 10 to 30 µM.

O=C1N(c2ccc(Cl)cc2)[C@H](c2cccc(OC(F)(F)F)c2)C2(CCCC2)N1c1ccc(Cl)cc1 [Example 15-2, (R)-1,3-bis(4-chlorophenyl)-4-(3-(trifluoromethoxy)phenyl)-1,3-diazaspiro[4.4]nonan-2-one] gave an IC50 of less than 1 µM.

C[C@]1(C(F)(F)F)[C@@H](c2cccc(OC(F)(F)F)c2)N(c2ccc(Br)cc2)C(=O)N1c1ccc(C#N)cc1 [Example 44-2, 4-((4R,5R)-3-(4-bromophenyl)-5-methyl-2-oxo-4-(3-(trifluoromethoxy)phenyl)-5-(trifluoromethyl)imidazolidin-1-yl)benzonitrile] gave an IC50 of less than 1 µM.

For O=C1N(c2ccc(Cl)cc2)[C@@H]2CCC[C@]2(c2cccc(OC(F)F)c2)N1c1ccc(Cl)cc1 [Example 23-2, (3aR,6aR)-1,3-bis(4-chlorophenyl)-3a-(3-(difluoromethoxy)phenyl)hexahydrocyclopenta[d]imidazol-2(1H)-one], the IC50 was 10 to 30 µM.

CC1(C)[C@H](c2cccc(C#N)c2)N(c2ccc(C(F)(F)F)cc2)C(=O)N1c1ccc(C(F)(F)F)cc1 [Example 24-2, (S)-3-(5,5-dimethyl-2-oxo-1,3-bis(4-(trifluoromethyl)phenyl)imidazolidin-4-yl)benzonitrile] was tested, and the IC50 was 10 to 30 µM.

Compound Cc1ccc(N2C(=O)N(c3ccc(C#N)cc3)C3(COC3)[C@H]2c2cccc(OC(F)(F)F)c2)cc1 [Example 43-1, (R)-4-(6-oxo-7-(p-tolyl)-8-(3-(trifluoromethoxy)phenyl)-2-oxa-5,7-diazaspiro[3.4]octan-5-yl)benzonitrile] has an IC50 of 1 to 10 µM.

CC[C@@]1(C)[C@@H](c2cccc(OC(F)(F)F)c2)N(c2ccc(Cl)cc2)C(=O)N1c1ccc(Cl)cc1 [Example 19-4, (4S,5R)-1,3-bis(4-chlorophenyl)-4-ethyl-4-methyl-5-(3-(trifluoromethoxy)phenyl)imidazolidin-2-one] showed an IC50 of 1 to 10 µM.

Work on O=C1N(c2ccc(Cl)cc2)C2CCCC2(c2cccc(OC(F)(F)F)c2)N1c1ccc(Cl)cc1 (stereo not shown) [Example 12] yielded an IC50 of 1 to 10 µM.

Work on C[C@@]1(C(F)(F)F)[C@H](c2cccc(C#N)c2)N(c2ccc(Cl)cc2)C(=O)N1c1ccc(Cl)cc1 [Example 27-1, 3-((4S,5S)-1,3-bis(4-chlorophenyl)-5-methyl-2-oxo-5-(trifluoromethyl)imidazolidin-4-yl)benzonitrile] yielded an IC50 of 10 to 30 µM.

With Cc1ccc(N2C(=O)N(c3ccc(C#N)cc3)C3(COC3)[C@H]2c2cccc(C#N)c2)cc1 [Example 57-1, (R)-3-(5-(4-cyanophenyl)-6-oxo-7-(p-tolyl)-2-oxa-5,7-diazaspiro[3.4]octan-8-yl)benzonitrile] the IC50 was 10 to 30 µM.

CC1(C)[C@H](c2cccc(OC(F)(F)F)c2)N(c2ccc(C#N)cc2)C(=O)N1c1ccc(Cl)cc1 [Example 40-2, (S)-4-(3-(4-chlorophenyl)-4,4-dimethyl-2-oxo-5-(3-(trifluoromethoxy)phenyl)imidazolidin-1-yl)benzonitrile] gave an IC50 of less than 1 µM.

Compound Cc1ccc(N2C(=O)N(c3ccc(C#N)cc3)[C@H](c3cccc(OC(F)(F)F)c3)C2(C)C)cc1 [Example 50-1, (R)-4-(4,4-dimethyl-2-oxo-3-(p-tolyl)-5-(3-(trifluoromethoxy)phenyl)imidazolidin-1-yl)benzonitrile] has an IC50 of less than 1 µM.

For CCC[C@]1(C)[C@H](c2cccc(C#N)c2)N(c2ccc(Cl)cc2)C(=O)N1c1ccc(Cl)cc1 [Example 33-3, 3-((4S,5R)-1,3-bis(4-chlorophenyl)-5-methyl-2-oxo-5-propylimidazolidin-4-yl)benzonitrile], the IC50 was 1 to 10 µM.

With COC[C@]1(C)[C@H](c2cccc(OC(F)(F)F)c2)N(c2ccc(Cl)cc2)C(=O)N1c1ccc(Cl)cc1 [Example 37-2, (4S,5S)-1,3-bis(4-chlorophenyl)-4-(methoxymethyl)-4-methyl-5-(3-(trifluoromethoxy)phenyl)imidazolidin-2-one] the IC50 was less than 1 µM.

With COC[C@@]1(C)[C@@H](c2cccc(OC(F)(F)F)c2)N(c2ccc(Cl)cc2)C(=O)N1c1ccc(Cl)cc1 [Example 37-1, (4R,5R)-1,3-bis(4-chlorophenyl)-4-(methoxymethyl)-4-methyl-5-(3-(trifluoromethoxy)phenyl)imidazolidin-2-one] the IC50 was 1 to 10 µM.

With CC1(C)C(c2cccc(OC(F)(F)F)c2)N(c2ccc(Cl)cc2)C(=O)N1c1ccc(Cl)cc1 (stereo not shown) [Example 7] the IC50 was less than 1 µM.

For Cc1ccc(N2C(=O)N(c3ccc(C#N)cc3)[C@@H](c3cccc(C#N)c3)C2(C)C)cc1 [Example 48-2, (S)-3-(3-(4-cyanophenyl)-5,5-dimethyl-2-oxo-1-(p-tolyl)imidazolidin-4-yl)benzonitrile], the IC50 was less than 1 µM.
